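Values below derive from 48-hour exposures of cells grown in 96-well plates, with endpoints linearly interpolated between the two concentrations bracketing the appropriate inhibition level. TGI: total growth inhibition.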
Tests used:
Assay in all cases: inhibition of tumour cell growth, NCI panel, 48 h
[1] = tested on: 786-0 renal
[2] = tested on: A498 renal
[3] = tested on: A549 NSCLC
[4] = tested on: ACHN renal
[5] = tested on: BT-549 breast
[6] = tested on: CAKI-1 renal
[7] = tested on: CCRF-CEM leukemia
[8] = tested on: COLO 205 colon
[9] = tested on: DU-145 prostate
[10] = tested on: EKVX NSCLC
[11] = tested on: HCC-2998 colon
[12] = tested on: HCT-116 colon
[13] = tested on: HCT-15 colon
[14] = tested on: HOP-62 NSCLC
[15] = tested on: HOP-92 NSCLC
[16] = tested on: HS 578T breast
[17] = tested on: HT29 colon
[18] = tested on: IGROV1 ovarian
[19] = tested on: K-562 leukemia
[20] = tested on: KM12 colon
[21] = tested on: M14 melanoma
[22] = tested on: MALME-3M melanoma
[23] = tested on: MCF7 breast
[24] = tested on: MDA-MB-231 breast
[25] = tested on: MDA-MB-435
[26] = tested on: MDA-N
[27] = tested on: MOLT-4 leukemia
[28] = tested on: NCI-H23 lung
[29] = tested on: NCI-H460 lung
[30] = tested on: NCI-H522 lung
[31] = tested on: NCI/ADR-RES ovarian
[32] = tested on: OVCAR-3 ovarian
[33] = tested on: OVCAR-4 ovarian
[34] = tested on: OVCAR-5 ovarian
[35] = tested on: OVCAR-8 ovarian
[36] = tested on: PC-3 prostate
[37] = tested on: RPMI-8226 leukemia
[38] = tested on: RXF 393 renal
[39] = tested on: SF-268 CNS
[40] = tested on: SF-295 CNS
[41] = tested on: SK-MEL-2 melanoma
[42] = tested on: SK-MEL-28 melanoma
[43] = tested on: SK-MEL-5 melanoma
[44] = tested on: SK-OV-3 ovarian
[45] = tested on: SNB-19 CNS
[46] = tested on: SNB-75 CNS
[47] = tested on: SW-620 colon
[48] = tested on: TK-10 renal
[49] = tested on: U251 CNS
[50] = tested on: UACC-257 melanoma
[51] = tested on: UACC-62 melanoma
[52] = tested on: UO-31 renal
[53] = tested on: HL-60(TB) leukemia
[54] = tested on: LOX IMVI melanoma
[55] = tested on: SF-539 CNS
[56] = tested on: SN12C renal
[57] = tested on: SR leukemia
[58] = tested on: T-47D breast

C/C=C\C(CC(=O)NCCC1CN(C(=O)OCc2ccccc2)c2ccccc21)CC(=O)OC (configuration not stated)
TGI [1]: > 100 µM
TGI [2]: > 100 µM
TGI [3]: > 100 µM
TGI [4]: > 100 µM
TGI [5]: > 100 µM
TGI [6]: > 100 µM
TGI [7]: > 100 µM
TGI [8]: > 100 µM
TGI [9]: > 100 µM
TGI [10]: > 100 µM
TGI [11]: > 100 µM
TGI [12]: > 100 µM
TGI [13]: > 100 µM
TGI [14]: > 100 µM
TGI [15]: > 100 µM
TGI [16]: > 100 µM
TGI [17]: > 100 µM
TGI [18]: > 100 µM
TGI [19]: > 100 µM
TGI [20]: > 100 µM
TGI [21]: > 100 µM
TGI [22]: > 100 µM
TGI [23]: > 100 µM
TGI [24]: > 100 µM
TGI [25]: > 100 µM
TGI [26]: > 100 µM
TGI [27]: > 100 µM
TGI [28]: > 100 µM
TGI [29]: > 100 µM
TGI [30]: > 100 µM
TGI [31]: > 100 µM
TGI [32]: > 100 µM
TGI [33]: > 100 µM
TGI [34]: > 100 µM
TGI [35]: > 100 µM
TGI [36]: > 100 µM
TGI [37]: > 100 µM
TGI [38]: > 100 µM
TGI [39]: > 100 µM
TGI [40]: > 100 µM
TGI [41]: > 100 µM
TGI [42]: > 100 µM
TGI [43]: > 100 µM
TGI [44]: > 100 µM
TGI [45]: > 100 µM
TGI [46]: > 100 µM
TGI [47]: > 100 µM
TGI [48]: > 100 µM
TGI [49]: > 100 µM
TGI [50]: > 100 µM
TGI [51]: > 100 µM
TGI [52]: > 100 µM

COC(=O)CCC(=O)c1ccc2c(c1)CC1(C2)Cc2ccc(C(=O)CCC(=O)OC)cc2C1
TGI [1]: > 100 µM
TGI [2]: > 100 µM
TGI [3]: > 100 µM
TGI [4]: > 100 µM
TGI [7]: > 100 µM
TGI [8]: > 100 µM
TGI [10]: > 100 µM
TGI [11]: > 100 µM
TGI [12]: > 100 µM
TGI [13]: > 100 µM
TGI [53]: > 100 µM
TGI [14]: > 100 µM
TGI [15]: > 100 µM
TGI [16]: > 100 µM
TGI [17]: > 100 µM
TGI [18]: > 100 µM
TGI [19]: > 100 µM
TGI [20]: > 100 µM
TGI [54]: > 100 µM
TGI [21]: > 100 µM
TGI [22]: > 100 µM
TGI [23]: > 100 µM
TGI [24]: > 100 µM
TGI [25]: > 100 µM
TGI [26]: > 100 µM
TGI [27]: > 100 µM
TGI [28]: > 100 µM
TGI [30]: > 100 µM
TGI [31]: > 100 µM
TGI [32]: > 100 µM
TGI [33]: > 100 µM
TGI [34]: > 100 µM
TGI [35]: > 100 µM
TGI [36]: > 100 µM
TGI [37]: > 100 µM
TGI [38]: > 100 µM
TGI [40]: > 100 µM
TGI [55]: > 100 µM
TGI [41]: 61 µM
TGI [43]: 61.5 µM
TGI [44]: > 100 µM
TGI [56]: > 100 µM
TGI [46]: 0.172 µM
TGI [57]: 88.5 µM
TGI [58]: > 100 µM
TGI [48]: > 100 µM
TGI [49]: > 100 µM
TGI [50]: > 100 µM
TGI [51]: > 100 µM
TGI [52]: > 100 µM
